Data set [1] relates to plant body or plant cells. Conditions: supplied directly to plant body or plant cells; 'or more'; cited from earlier work.
In a further data set the test system is carp. Conditions: data sheet of Hokho lateral-row Oryzemate granular wettable powder; cited from earlier work.
Data set [2] can be described thus: CLA chemiluminescence measurement of superoxide anion radicals in water. It is filed as physicochemical. The settings on record: KO2 marker in FIG. 4; extinguished within several milliseconds. As for the experimental part: The measurement of the superoxide anion radicals in water is performed in the following manner. […] Further, timings for collecting samples are set to immediately before the starting of reaction, 15 minutes after the start of reaction, and 30 minutes after the starting of reaction. At respective timings, 500 μl of aqueous solution in the reservoir is sampled using a micropipette and is added to 500 μl of 25 mM phosphoric acid potassium buffer solution (pH7.0) to which CLA is preliminarily added (1:1 mixture, total: 1 ml) and CLA luminescence is measured for 5 minutes after dropping the solution. The intensity of luminescence is indicated by relative luminescence unit (hereinafter referred to as rlu). […] Further, KO2 solution obtained by dissolving KO2 (potassium superoxide) in an organic solvent is added to CLA solution thus preparing a calibration curve of superoxide anion by chemiluminescence dependent on CLA. Generally, a method which dissolves KO2 in crown-ether-based organic solution and uses the solution for the determination of superoxide is used. However, to allow the reaction with CLA in aqueous solution in a non-hydrophobic environment, dimethylsulfoxide (DMSO) is used as organic solvent. Using this method, CLA luminescence by adding KO2 solution is induced whereby the calibration curve of superoxide anion radicals is prepared.

As for `O=C(O)c1ccccc1O` [salicylic acid], the “concentration necessary to actually confirm the expression of the genes” value in data set [1] is given as 0.1 to 0.5 mM.

As to `OO` [hydrogen peroxide], the “concentration necessary to actually confirm the expression of the genes” value in data set [1] is listed as 2 to 10 mM.

`C=CCOC1=NS(=O)(=O)c2ccccc21` [probenazole]: the “LC50 value (48 hours) for carp” value in the data set with carp is reported as 8 ppm.

In the case of Potassium superoxide [KO2], the “time for which emission of light is observed after dropping into water” value in data set [2] is < 2 s.
